Measured values from patent US10548894B2, “Combination therapy” (Array BioPharma Inc., priority 2013, dated 2020).

Tests used:
[1] = test system: WM-266-4 cells expressing truncated p61-BRAFV600E; assay: ATP-based CTG (Cell Titer Glo) cell viability assay, 72 h; conditions: Homo sapiens, WM-266-4 p61 BRafV600E, single agent
Method: (§1) Compound stocks are prepared in DMSO at a final concentration of 10 mM.
(§2) A-375 and WM-266-4 cells were purchased from American Type Culture Collection (ATCC). The A-375 cells were cultured in DMEM medium (ATCC) and the WM-266-4 cells were cultured in EMEM medium (ATCC) both supplemented with 10% fetal bovine serum (Gibco) and incubated at 37° C./5% CO2. The cell lines engineered to express commonly occurring alleles indicative of resistance were acquired from Novartis-Emeryville. These resistant models include, A-375 cells expressing mutant MEK1P124L, truncated p61-BRAFV600E, or mutant NRASQ61K, and WM-266-4 cells expressing mutant MEK1C121S, truncated p61-BRAFV600E, or mutant NRASQ61K. These cells were cultured in the appropriate parental medium with selection marker G418 and in the presence of 5 uM LFE158 (MEK mutants) or LIH720 (truncated p61-BRAFV600E).
(§3) For screening, cells were seeded in 80 ul of medium in 384-well plates (Thermo Scientific, cat#4332) at 500 (A-375) or 750 (WM-266-4) cell densities per well using a MultiDrop Combi (Thermo-Fisher) with an 8-channel standard cassette. To promote an even distribution of cells across the entire well, cells were briefly centrifuged at 1000 RPM and incubated at room temperature 30 minutes. All plates were incubated at 37° C., 5% CO2 for 24 h prior to compound addition. Compound stock was freshly prepared in the appropriate culture medium, and added using a PAA robot equipped with a 200n1 pin tool. In a minimum of three replicate wells, single agent and combination effects after 72 hours, were assessed by both quantification of cellular ATP levels via Cell Titer Glo (Promega) according to the manufacturer's protocol and by microscopy imaging. For imaging, cells were fixed to the plates and permeabilized with a solution of 10% PFA, 0.3% TX-100 in PBS via a WellMate dispenser with controlled dispensing speeds. Cell nuclei were stained with Hoechst 33342 (H3570, Invitrogen), and all necessary washing steps were performed by a BioTek washer. […]

[2] = test system: WM-266-4 cells expressing mutant NRASQ61K; assay: as above; conditions: Homo sapiens, WM-266-4 NRASQ61K, single agent
Method: as §1, §2, §3

[3] = test system: A-375 cells expressing truncated p61-BRAFV600E; assay: as above; conditions: Homo sapiens, A-375 p61 BRafV600E, single agent
Method: as §1, §2, §3

SW1417 = assay: 72 hr cell titer Glo proliferation assay, BRAFV600E mutant CRC cell lines; type: cell-based; conditions: Homo sapiens, SW1417, single agent
Method: (§4) Single agent and combinatorial effects on proliferation of inhibitors of RAF (Compound of Formula (I)) and PIK3Ca (Compound X) kinases in seven BRAF-mutant CRC-derived cell lines. All cell lines express the BRAFV600E protein. Cells harboring known or putative activating mutations in the PI3Kα gene are marked with a (*) and cells with PTEN loss marked with a (#). Cell proliferation was measured in 72 hr cell titer Glo™ assays and all results supplied are the result of at least triplicate measurements. Shown are single agent IC50 values for the Compound of Formula (I) and Compound X. Synergy score (SS) measurements as well as the combination index (C150) at the 50% effect level are given for each combination) in Table 6. Interactions were deemed synergistic when SS values were ≥2.0 and CI values were ≤0.5. Interactions were deemed additive/synergistic when either SS values were ≥2.0 but CI values were >0.5 or SS values were <2.0 but CI values were ≤0.5. Interactions where termed additive when SS values were <2.0 and CI values were >0.5. Synergy calls are given in the “effect description” columns.

CL-34 = assay: as above; type: cell-based; conditions: CL-34, single agent
Method: as §4

OUMS-23 = assay: as above; type: cell-based; conditions: OUMS-23 (PTEN loss), single agent
Method: as §4

LS411N = assay: as above; type: cell-based; conditions: Homo sapiens, LS-411N, single agent
Method: as §4

SNU-C5 = assay: as above; type: cell-based; conditions: SNU-C5 (PI3Kα mutation), single agent
Method: as §4

COLO 205 = assay: as above; type: cell-based; conditions: Homo sapiens, COLO 205, single agent
Method: as §4

RKO = assay: as above; type: cell-based; conditions: Homo sapiens, RKO (PI3Kα mutation), single agent
Method: as §4

HT-29 = assay: as above; type: cell-based; conditions: Homo sapiens, HT-29 (PI3Kα mutation), single agent
Method: as §4

[4] = test system: HMEX1906 primary melanoma model (HMEX1906-R5); assay: Efficacy in HMEX1906-R5 primary melanoma model resistant to Compound of Formula (I); type: in vivo; conditions: PO; Compound C 250 mg/kg qd×21; Compound of Formula (I) 5 mg/kg bid×21
Method: Objective: To evaluate the efficacy of the combination of the Compound of Formula (I) and the CDK 4 inhibitor Compound C in the HMEX1906 primary melanoma model that is grown in the presence of and is resistant to 5 mg/kg the Compound of Formula (I) (HMEX1906-R5)
Drug formulation: Compound C is formulated in 0.5% MC/0.5% Tween80 and the Compound of Formula (I) is formulated in 20% PEG300/3% ETPGS.
Tumors are chopped/minced into cell line like suspension (tumors homogenized). 7 mL of matrigel added and 1.5 mL of HBSS. Suspension warmed in palm until Matrigel is thick and implanted with a 18G needle s.c right flank of female nude mice.
The mice were assigned to the following groups at 18 days post implant with an average tumor volume of 266 mm^3 and average body weight of 25 grams.
Groups: 10 mice/group, route PO, dose volume 0.2 mL
Group 1: Vehicle, 0 mg/kg bid×14
Group 2: Compound C, 250 mg/kg qd×21
Group 3: Compound of Formula (I), 5 mg/kg bid×21
Group 4: Compound C 250 mg/kg qd×21+Compound of Formula (I) 5 mg/kg bid×21

Work on `COC(=O)N[C@@H](C)CNc1nccc(-c2cn(C(C)C)nc2-c2cc(Cl)cc(NS(C)(=O)=O)c2F)n1` [Compound of Formula (I)] yielded an IC50 [1] of 906 nM, an IC50 [2] of 1120 nM and an IC50 [3] of 576 nM. The IC50 (SW1417) was 235 nM, the IC50 (CL-34) was 30 nM and the IC50 (OUMS-23) was > 2700 nM. For the same molecule, the IC50 (LS411N) was 18 nM, the IC50 (SNU-C5) was > 2700 nM and the IC50 (COLO 205) was 5 nM. The IC50 (RKO) was 1960 nM, the IC50 (HT-29) was 49 nM and the “Mean change of body weight” value [4] was 3.5 ± 1.1 % ± SEM. The “Mean change of tumor volume” value [4] was 807 ± 106 mm3 ± SEM, the “Mean change of tumor volume vs control (T/C)” value [4] was 39% and the “Survival (Survivors/Total)” value [4] was 10/10.
